Test [1] deals with panel of solid human tumor cell lines (MCF-7, HCT-116, HSC-2, HK-1). Also noted: method as in PMID 19387338. The following applies: anticancer activity in cellular assays; previous study; cited from earlier work.
The subject of test [2] is NCI-60 human tumor cell lines. In words: NCI-60 screen, sulforhodamine B, whole panel. In kind it is cell-based. The settings on record: overall value for the NCI-60 cell lines screen. The procedure:
NCI-60 cell panel screening was performed by the NCI/National Institutes of Health developmental therapeutics program (Bethesda, US). This platform allows the determination of growth inhibitory profiles of test compounds on 60 different human cancer cell lines, representing leukemia, melanoma and cancers of the lung, colon, central nervous system, ovary, breast, prostate, and renal subpanel. Sulforhodamine B assay was used to assess the cytotoxicity of test agents in a panel of 60 cell lines. Briefly, the human tumor cell lines of the cancer screening panel were grown in RPMI 1640 medium containing 5% FBS and 2 mM L-glutamine. For a typical screening experiment, cells were inoculated into 96 well microtiter plates in 100 µl at plating densities depending on the doubling time of individual cell lines. After cell inoculation, the microtiter plates are incubated at 37°C, 5% CO2 and 100% relative humidity for 24 h. Following incubation, aliquots of 100 µl of compound at different dilutions were added to the appropriate microtiter wells and were further incubated for 48 h. At the assay end-point, cells were fixed with trichloroacetic acid followed by Sulforhodamine B staining for cellular protein content. Sulforhodamine B absorbance was read at a wavelength of 515 nm as a measurement of cell density.

Test [3] concerns HSC-2 cells. As to the kind of experiment: JC-1 analysis of mitochondrial membrane potential. The test is classed as cell-based, human. The following applies: 0.1 µM, untreated control about 8% at 8 h. The procedure:
The mitochondrial membrane potential was measured based on the potential–dependent accumulation of the cationic JC-1 dye which results in a shift of fluorescence emission from green (∼525 nm) to red (∼590 nm) due to the formation of J-aggregates. Therefore, mitochondrial depolarization is indicated by a decrease in the red/green fluorescence intensity ratio. Briefly, cells were collected and suspended in 1 ml warm media at approximately 1×10^6 cell/ml. In a control tube, 1 µl of 50 mM CCCP was added and incubated at 37°C for 5 min. Then, 10 µl of 200 µM JC-1 was added into the cells and incubated at 37°C for 30 min. Cells were washed twice with warm PBS, resuspended in 500 µl of PBS and analyzed on a FACSCalibur flow cytometer using 488 nm excitation with 530/30 nm and 585/42 nm bandpass emission filters.
Meanwhile, the mitochondrial transmembrane potential loss was more prominent in HSC-2 cells treated with 5 at 0.1 µM. Approximately 21% (P<0.05) of the cell population was affected in the first hour and the percentage increased drastically to 34% in 8 h. For the untreated control cells, the population of depolarized cells at 8 h remained at approximately 8%. […] CCCP is an oxidative phosphorylation decoupling agent which acts as a positive control for the experiment.

Test [4] deals with Complex I. As to the kind of experiment: Immunocapture ELISA microplate enzyme activity assay. In kind it is biochemical. The following applies: mouse liver mitochondria extract; 0.01–10 µM.

Each structure is given as a SMILES string.

Usually GI50 stands for the concentration at which growth is held to half of that of the control. One may read the IC50 as the midpoint of a concentration-inhibition curve. Read a low IC50 as inhibition by little substance. Consider `c1csc(-c2c3ccc(=[N+]4CCCCC4)cc-3oc3cc(N4CCCCC4)ccc23)c1` [Rosamine 5], for which the “fold more active than phenyl substituted compound 1” value in test [1] is 5 fold. The molecule further showed a GI50 in test [2] (Homo sapiens) of 100 nM. The Log10GI50 in test [2] is −7. For the same molecule, the “cell population with mitochondrial transmembrane potential loss” value is on record as 34% in test [3] (8 h) and “Approximately 21%” in test [3] (within 1 h after treatment). The molecule also yielded an IC50 in test [4] above 10000 nM.
